Laboratory results as given in US20130108573A1, “Bile Acid Recycling Inhibitors for Treatment of Hypercholemia and Cholestatic Liver Disease” (Lumena Pharmaceuticals, Inc., priority 2011, published 2013).

Assays:
[1] = tested on: Fecal Bile Acid Excretion and Plasma Bile Acid Concentrations; assay: ZDF rat study of 264W94: fecal bile acid excretion and plasma bile acid concentrations; type: in vivo, Zucker diabetic fatty rats; settings: male ZDF rats, 2 weeks
Procedure: Male Zucker diabetic fatty rats (ZDF/GmiCrl-fa/fa) were purchased from Charles River (Raleigh, N.C.) and housed under controlled conditions (12:12 light-dark cycle, 24° C. and 50% relative humidity) with free access to rodent food (Purina 5008, Harlan Teklad, Indianapolis, Ind.). All rats arrived at seven weeks of age (±3 days). After a one-week acclimation period, rats were anesthetized with isoflurane (Abbott Laboratories, IL) and tail-vein blood samples were collected at 9 am without fasting. Blood glucose levels were measured using a glucometer (Bayer, Leverkusen, Germany). In order to ensure balanced treatment groups, ZDF rats were assigned to six treatment groups based upon baseline glucose: vehicle (0.5% HPMC, 0.1% Tween80) and five doses of 264W94 (0.001, 0.01, 0.1, 1, 10 mg/kg). All treatments were given via oral gavage twice a day and animals were followed for two weeks with blood samples collected from tail vein at the end of each week at 9 am without fasting. Fecal samples were collected for 24 hours during the second week of treatment.
Non-esterified fatty acids (NEFA), bile acids, and bile acids in fecal extraction were measured using the Olympus AU640 clinical chemistry analyzer (Beckman Coulter, Irving, Tex.).

[2] = tested on: Plasma Bile Acid Levels; assay: Plasma bile acid levels of ZDF rats after ascending doses of SC-435 and LUM002; type: in vivo; settings: male ZDF rats n=4, end of second week
Procedure: FIG. 2. Plasma bile acid levels of ZDF rats after administration of ascending doses of SC-435 and LUM002. Male ZDF rats (n=4) were administered vehicle, SC-435 (1, 10 or 30 mg/kg) or LUM002 (0.3, 1, 3, 10 or 30 mg/kg) by oral gavage twice a day for 2 weeks. Plasma bile acid levels were determined at the end of the second week. Data are expressed as mean values ±SEM.
Male ZDF rats (n=4) were administered vehicle, SC-435 (1, 10 or 30 mg/kg) or LUM002 (0.3, 1, 3, 10 or 30 mg/kg) by oral gavage twice a day for 2 weeks. Plasma bile acid levels were determined at the end of the second week. […] Data are expressed as mean values ±SEM.

[3] = 264W94 0.001-10 mg/kg oral gavage twice a day

Q: What does the source list for `CCCC[C@]1(CC)CS(=O)(=O)c2cc(OC)c(OC)cc2[C@@H](c2ccccc2)N1` [Compound 264W94]?
A: Fecal NEFA [1, 3]: slightly increased; Plasma bile acid concentrations [1, 3]: decreased dose-dependently; Fecal bile acid concentrations elevated compared to vehicle treated rats ([1]; 264W94 0.001-10 mg/kg oral gavage twice a day, 24 h feces in second week): up to 6.5 fold; Bile acids in the feces ([1]; oral administration of 264W94 0.001-10 mg/kg twice a day): dose-dependently increased; ED50 of fecal bile acid elevation ([1]; oral gavage twice a day): 0.17 mg/kg

Q: `CCCC[C@]1(CC)CS(=O)(=O)c2ccc(N(C)C)cc2[C@@H](c2cccc(NC(=O)N[C@@H]3O[C@H](COS(=O)(=O)[O-])[C@@H](O)[C@H](OCc4ccccc4)[C@H]3O)c2)[C@H]1O.[K+]` [LUM002] was tested. Which “Plasma bile acid levels” value ([2]; LUM002 0.3, 1, 3, 10 or 30 mg/kg oral gavage twice a day for 2 weeks) did it give?
A: decreased for all doses

Q: Which “Plasma bile acid levels” value ([2]; SC-435 1, 10 or 30 mg/kg oral gavage twice a day for 2 weeks) does the source give for `CCCCC1(CCCC)CS(=O)(=O)c2ccc(N(C)C)cc2[C@@H](c2ccc(OCCCC[N+]34CCN(CC3)CC4)cc2)[C@H]1O.CS(=O)(=O)[O-]` [SC-435, 1-[4-[4-[(4R,5R)-3,3-dibutyl-7-(dimethylamino)-2,3,4,5-tetrahydro-4-hydroxy-1,1-dioxido-1-benzothiepin-5-yl]phenoxy]butyl]-4-aza-1-azoniabicyclo[2.2.2]octane methanesulfonate salt, reference compound] here?
A: decreased for all doses
